In general, inhibition refers to the share of the control response that was lost under treatment. Lower therefore signals little suppression.

For 47 compounds, inhibition results are on record in patent publication US8754073B2, “Substituted piperazino-dihydrothienopyrimidines” (Boehringer Ingelheim International GmbH, priority 2007, dated 2014).

Each structure is given as a SMILES string.

The target in one assay is PDE4B (Homo sapiens, UniProt Q07343). Nature of the assay: Scintillation Proximity Assay (SPA) of PDE4B enzyme activity ([H3]-cAMP cleavage). It counts as biochemical. The conditions noted are these: test substance 1 μM; one-hour incubation of [H3]-cAMP with PDE4B enzyme at 30° C. Put shortly: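 SPA read-out: [H3]-cAMP incubated with PDE4B in assay buffer for 1 h at 30 °C, with and without test compound at 1 μM. Reaction stopped by adding yttrium silicate beads that bind the [H3]-AMP product; after 45 min settling, scintillation counted. Value is % inhibition at 1 μM.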
PDE4B, sequence (Q07343 whole entry, species assumed): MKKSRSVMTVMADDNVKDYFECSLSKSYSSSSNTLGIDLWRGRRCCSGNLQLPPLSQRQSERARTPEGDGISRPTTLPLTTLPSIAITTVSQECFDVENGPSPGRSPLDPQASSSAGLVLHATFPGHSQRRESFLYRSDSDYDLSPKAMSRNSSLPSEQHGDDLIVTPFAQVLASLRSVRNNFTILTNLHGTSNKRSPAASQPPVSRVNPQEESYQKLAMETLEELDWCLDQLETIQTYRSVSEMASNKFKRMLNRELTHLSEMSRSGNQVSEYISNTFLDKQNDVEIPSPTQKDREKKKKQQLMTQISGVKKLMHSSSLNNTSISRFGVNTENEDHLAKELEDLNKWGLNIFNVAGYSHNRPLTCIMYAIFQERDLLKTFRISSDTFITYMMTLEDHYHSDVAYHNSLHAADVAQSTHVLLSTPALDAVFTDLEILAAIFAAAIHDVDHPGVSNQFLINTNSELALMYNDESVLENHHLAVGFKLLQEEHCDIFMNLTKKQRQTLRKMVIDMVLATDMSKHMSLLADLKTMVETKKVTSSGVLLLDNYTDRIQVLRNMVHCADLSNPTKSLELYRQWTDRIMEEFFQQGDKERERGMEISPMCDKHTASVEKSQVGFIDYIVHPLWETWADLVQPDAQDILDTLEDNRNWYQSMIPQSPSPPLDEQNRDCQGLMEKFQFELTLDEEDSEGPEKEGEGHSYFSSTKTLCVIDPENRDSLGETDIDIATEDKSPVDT
For the compound `[O-][S+]1CCc2nc(N3CCC(c4nnc5ccccn45)CC3)nc(Nc3cccc(F)c3)c21` (centres unmarked) [Example 139], the inhibition at 1 µM is 94%.
The compound `[O-][S+]1CCc2nc(N3CCC(c4nc5ccccc5o4)CC3)nc(NC3(CO)CC3)c21` (centres unmarked) [Example 98, {1-[2-(4-Benzoxazol-2-Yl-Piperidin-1-Yl)-5-Oxo-6,7-Dihydro-5H-5λ^4-Thieno[3,2-d]Pyrimidin-4-Ylamino]-Cyclopropyl}-Methanol] had an inhibition at 1 µM of 97%.
Same read-out and setting: next, `CC(C)[C@H](CO)Nc1nc(N2CCC(c3nc(-c4cccnc4)no3)CC2)nc2c1[S+]([O-])CC2` (some centres unmarked) [Example 162]: 92%; `COC(=O)c1cccc(C2CCN(c3nc4c(c(NC5CCOCC5)n3)[S+]([O-])CC4)CC2)c1` (centres unmarked) [Example 120]: 95%.
The same measure, in the same setting: next, `[O-][S+]1CCc2nc(N3CCC(c4c[nH]cn4)CC3)nc(NC3(CO)CC3)c21` (centres unmarked) [Example 27]: 87%; `[O-][S+]1CCc2nc(N3CCC(c4ccc(Cl)cc4)CC3)nc(NC3(CO)CC3)c21` (centres unmarked) [Example 2, (1-{2-[4-(4-Chlorophenyl)-Piperidin-1-Yl]-5-Oxo-6,7-Dihydro-5H-5λ^4-Thieno[3,2-d]Pyrimidin-4-Ylamino}-Cyclopropyl)-Methanol]: 94%.
On the same count and under the same terms, the value for `[O-][S+]1CCc2nc(N3CCC(c4noc5ccccc45)CC3)nc(NC3(CO)CC3)c21` (centres unmarked) [Example 31] was 97%.
For `CC(C)[C@H](CO)Nc1nc(N2CCC(c3ccc(C#N)cc3)CC2)nc2c1[S+]([O-])CC2` (some centres unmarked) [Example 20], the inhibition at 1 µM came out at 94%.
`N#Cc1ccc(C2CCN(c3nc4c(c(Nc5cccc(F)c5)n3)[S+]([O-])CC4)CC2)cc1` (centres unmarked) [Example 79] registered an inhibition at 1 µM of 96%.
Same read-out and setting: next, `O=S1(=O)CCc2nc(N3CCC(c4ccc(Cl)cc4)CC3)nc(NC3(CO)CC3)c21` [Example 333, (1-{2-[4-(4-chlorophenyl)-piperidin-1-yl]-5.5-dioxo-6,7-dihydro-5H-5λ^6-thieno[3,2-d]pyrimidin-4-ylamino}-cyclopropyl)-methanol]: 56%; `CC(C)[C@H](CO)Nc1nc(N2CCC(c3noc4cc(F)ccc34)CC2)nc2c1[S+]([O-])CC2` (some centres unmarked) [Example 152]: 95%.
The compound `[O-][S+]1CCc2nc(N3CCC(c4ccc(F)cc4)CC3)nc(NC3CCOCC3)c21` (centres unmarked) [Example 10] showed an inhibition at 1 µM of 93%.
On to `CC(C)[C@H](CO)Nc1nc(N2CCC(O)(c3cc(F)cc(F)c3)CC2)nc2c1[S+]([O-])CC2` (some centres unmarked) [Example 18], for which 1 µM produced 92% inhibition.
`COc1ccc(C2CCN(c3nc4c(c(NC5(CO)CC5)n3)[S+]([O-])CC4)CC2)cc1` (centres unmarked) [Example 101] registered an inhibition at 1 µM of 94%.
On the same count and under the same terms, next, `CCC[C@H](CO)Nc1nc(N2CCC(c3ccc(Cl)cc3)CC2)nc2c1[S+]([O-])CC2` (stereo partly drawn) [Example 3, (R)-2-{2-[4-(4-chlorophenyl)-piperidin-1-yl]-5-oxo-6,7-dihydro-5H-5λ^4-thieno[3,2-d]pyrimidin-4-ylamino}-pentan-1-ol]: 94%.
Same read-out and setting: the value for `CN1C[C@@H](Nc2nc(N3CCC4(CC3)CN(S(C)(=O)=O)c3ccccc34)nc3c2[S+]([O-])CC3)CCC1=O` (some centres unmarked) [Example 44] was 95%; that for `[O-][S+]1CCc2nc(N3CCC(c4cccc(O)c4)CC3)nc(NC3(CO)CC3)c21` (centres unmarked) [Example 32] was 96%.
`O=C1Nc2ccccc2C2(CCN(c3nc4c(c(NC5(CO)CC5)n3)[S+]([O-])CC4)CC2)O1` (centres unmarked) [Example 36] showed an inhibition at 1 µM of 92%.
On the same count and under the same terms, next, `[O-][S+]1CCc2nc(N3CCC(c4nc5cc(Cl)ccc5s4)CC3)nc(NC3CCOCC3)c21` (centres unmarked) [Example 118]: 96%; `CCc1[nH]c2ccc(F)cc2c1C1CCN(c2nc3c(c(Nc4cccc(F)c4)n2)[S+]([O-])CC3)CC1` (centres unmarked) [Example 82, {2-[4-(2-Ethyl-5-Fluoro-1H-Indol-3-Yl)-Piperidin-1-Yl]-5-Oxo-6,7-Dihydro-5H-5λ^4-Thieno[3,2-d]Pyrimidin-4-Yl}-(3-Fluorophenyl)-Amine]: 92%.
Same read-out and setting: the value for `CC(C)c1noc(C2CCN(c3nc4c(c(NC5(CO)CC5)n3)[S+]([O-])CC4)CC2)n1` (centres unmarked) [Example 113] was 92%; that for `[O-][S+]1CCc2nc(N3CCC(c4nc(-c5ccncc5)no4)CC3)nc(NC3CCOCC3)c21` (centres unmarked) [Example 132] was 95%; that for `CC(C)[C@H](CO)Nc1nc(N2CCC(c3cc4ccccc4o3)CC2)nc2c1[S+]([O-])CC2` (some centres unmarked) [Example 157] was 96%.

The same assay, now with this note: test substance 1 μM; one-hour incubation with [H3]-cAMP at 30° C.
Turning to `CC(C)c1noc(C2CCN(c3nc4c(c(N[C@H]5CCC(=O)N(C)C5)n3)[S+]([O-])CC4)CC2)n1` (some centres unmarked) [Example 189], 1 µM produced 97% inhibition.
As for `CC(C)N1CCc2ccc(OC3CCN(c4nc5c(c(NC6CCOCC6)n4)[S+]([O-])CC5)CC3)cc2CC1` (centres unmarked) [Example 235], at 1 µM the inhibition was 87%.
`CN1C[C@@H](Nc2nc(N3CCC(c4cc[n+]([O-])cc4)CC3)nc3c2[S+]([O-])CC3)CCC1=O` (some centres unmarked) [Example 196] came in with an inhibition at 1 µM of 94%.
The same measure, in the same setting: next, `[O-][S+]1CCc2nc(N3CCC(c4nc(-c5ccccc5)no4)CC3)nc(NC3(CO)CC3)c21` (centres unmarked) [Example 311]: 91%.
With `CC(C)[C@H](CO)Nc1nc(N2CCC(COCc3ccccc3)(c3ccc(Cl)cc3)CC2)nc2c1[S+]([O-])CC2` (some centres unmarked) [Example 307], the inhibition at 1 µM turned out to be 89%.
Take `CN(C(=O)c1ccc(C2CCN(c3nc4c(c(NC5CCOCC5)n3)[S+]([O-])CC4)CC2)cc1)C1CCOCC1` (centres unmarked) [Example 224]: the inhibition at 1 µM was determined as 93%.
As for `CN1C[C@@H](Nc2nc(N3CCC(c4cc(-c5cccs5)[nH]n4)CC3)nc3c2[S+]([O-])CC3)CCC1=O` (some centres unmarked) [Example 286], testing at 1 µM gave an inhibition of 89%.
Still for that read-out and setting: next, `CN1C[C@@H](Nc2nc(N3CCC(c4nc(-c5ccccc5)c(-c5ccccc5)o4)CC3)nc3c2[S+]([O-])CC3)CCC1=O` (some centres unmarked) [Example 278, 5-{2-[4-(4,5-diphenyloxazol-2-yl)-piperidin-1-yl]-5-oxo-6,7-dihydro-5H-5λ^4-thieno[3,2-d]pyrimidin-4-ylamino}-1-methylpiperidin-2-one]: 95%; `[O-][S+]1CCc2nc(N3CCC(CO)(c4ccc(Cl)cc4)CC3)nc(Nc3cccc(F)c3)c21` (centres unmarked) [Example 291]: 89%; `Cc1nn(C)cc1CNC(=O)c1ccc(OC2CCN(c3nc4c(c(NC5CCOCC5)n3)[S+]([O-])CC4)CC2)cc1` (centres unmarked) [Example 263]: 94%.
`CCN(CC)CCOc1ccc(OC2CCN(c3nc4c(c(NC5CCOCC5)n3)[S+]([O-])CC4)CC2)cc1` (centres unmarked) [Example 178, (2-{4-[4-(2-diethylamino-ethoxy)-phenoxy]-piperidin-1-yl}-5-oxo-6,7-dihydro-5H-5λ^4-thieno[3,2-d]pyrimidin-4-yl)-(tetrahydropyran-4-yl)-amine] registered an inhibition at 1 µM of 92%.
Still for that read-out and setting: the value for `[O-][S+]1CCc2nc(N3CCC(Oc4ccc(C5=NCCO5)cc4)CC3)nc(NC3CCOCC3)c21` (centres unmarked) [Example 180, (2-{4-[4-(4,5-dihydroxazol-2-yl)-phenoxy]-piperidin-1-yl}-5-oxo-6,7-dihydro-5H-5λ^4-thieno[3,2-d]pyrimidin-4-yl)-(tetrahydropyran-4-yl)-amine] was 93%.
Same read-out and setting: the value for `[O-][S+]1CCc2nc(N3CCC(c4nc5ncncc5[nH]4)CC3)nc(NC3CCOCC3)c21` (centres unmarked) [Example 208] was 82%; that for `CN1CCC(N(C)C(=O)c2ccc(C3CCN(c4nc5c(c(NC6CCOCC6)n4)[S+]([O-])CC5)CC3)cc2)CC1` (centres unmarked) [Example 228] was 94%.
Same read-out and setting: the value for `CN1CCC(N(C)C(=O)c2cccc(C3CCN(c4nc5c(c(NC6CCOCC6)n4)[S+]([O-])CC5)CC3)c2)CC1` (centres unmarked) [Example 248] was 88%; that for `CN1C[C@@H](Nc2nc(N3CCC(CN(C)S(C)(=O)=O)(c4ccccc4)CC3)nc3c2[S+]([O-])CC3)CCC1=O` (some centres unmarked) [Example 270, N-methyl-N-{1-[4-(1-methyl-6-oxo-piperidin-3-ylamino)-5-oxo-6,7-dihydro-5H-5λ^4-thieno[3,2-d]pyrimidin-2-yl]-4-phenylpiperidin-4-ylmethyl}-methanesulphonamide] was 95%.
`N#Cc1ccc(OC2CCN(c3nc4c(c(NC5CCOCC5)n3)[S+]([O-])CC4)CC2)cc1` (centres unmarked) [Example 321] returned an inhibition at 1 µM of 93%.
On the same count and under the same terms, the value for `Cc1cn(C)nc1CN(C)C(=O)c1cccc(C2CCN(c3nc4c(c(NC5CCOCC5)n3)[S+]([O-])CC4)CC2)c1` (centres unmarked) [Example 258] was 93%.
The same measure, in the same setting: the value for `[O-][S+]1CCc2nc(N3CCC(CO)(c4ccc(Cl)cc4)CC3)nc(NC3CCOCC3)c21` (centres unmarked) [Example 281] was 87%.
Compound `CN1C[C@@H](Nc2nc(N3CCC(C)(c4nc5cc(F)ccc5o4)CC3)nc3c2[S+]([O-])CC3)CCC1=O` (some centres unmarked) [Example 197, 5-{2-[4-(5-fluorobenzoxazol-2-yl)-4-methylpiperidin-1-yl]-5-oxo-6,7-dihydro-5H-5λ^4-thieno[3,2-d]pyrimidin-4-ylamino}-1-methylpiperidin-2-one] showed an inhibition at 1 µM of 96%.
On the same count and under the same terms, the value for `CN1C[C@@H](Nc2nc(N3CCC(CNS(C)(=O)=O)(c4ccccc4)CC3)nc3c2[S+]([O-])CC3)CCC1=O` (some centres unmarked) [Example 253, N-{1-[4-(1-Methyl-6-Oxo-Piperidin-3-Ylamino)-5-Oxo-6,7-Dihydro-5H-5λ^4-Thieno[3,2-d]Pyrimidin-2-Yl]-4-Phenylpiperidin-4-Ylmethyl}-Methanesulphonamide] was 92%; that for `CN1C[C@@H](Nc2nc(N3CCC(Oc4ccc(F)cc4)CC3)nc3c2[S+]([O-])CC3)CCC1=O` (some centres unmarked) [Example 169] was 92%; that for `[O-][S+]1CCc2nc(N3CCC(COCc4ccccc4)(c4ccc(Cl)cc4)CC3)nc(NC3CCOCC3)c21` (centres unmarked) [Example 310] was 92%.
The same measure, in the same setting: next, `COC(=O)c1cccc(OC2CCN(c3nc4c(c(NC5CCOCC5)n3)[S+]([O-])CC4)CC2)c1` (centres unmarked) [Example 177]: 93%.
